Assay [1] in a line: Cytotoxicity against human THP1-Dual KO-STING cells assessed as residual cell viability by CellTiter96 Aqueous One Solution Cell Proliferation Assay. Format: functional. More on the design: concentration or dose not given beside the values.
Assay [2] addresses Stimulator of interferon genes protein (Homo sapiens, UniProt Q86WV6). The following applies: THP1-Dual, filed as activator, dose 50.0 µM, time 24.0 hrs.
The test system of the next assay is THP1-Dual. The experiment in a line: Cytotoxicity against human wild type THP1-Dual cells assessed as residual cell viability by CellTiter96 Aqueous One Solution Cell Proliferation Assay. Format: functional. Also noted: concentration or dose not given beside the values.
The nature of assay [3]: Activation of IRF-mediated immune response in human THP1-Dual KO-STING cells co-expressing ISRE reporter assessed as normalized luciferase gene expression by measuring relative luciferase units at 50 uM incubated for 24 hrs by QUANTI Luc based microplate reader method. Format: functional.

Structures are written as SMILES.

The source of these data is ChEMBL document CHEMBL5154810, “Development of Potent Immune Modulators Targeting Stimulator of Interferon Genes Receptor” (J Med Chem, 2022).

Stimulator of interferon genes protein, sequence (Q86WV6 whole entry): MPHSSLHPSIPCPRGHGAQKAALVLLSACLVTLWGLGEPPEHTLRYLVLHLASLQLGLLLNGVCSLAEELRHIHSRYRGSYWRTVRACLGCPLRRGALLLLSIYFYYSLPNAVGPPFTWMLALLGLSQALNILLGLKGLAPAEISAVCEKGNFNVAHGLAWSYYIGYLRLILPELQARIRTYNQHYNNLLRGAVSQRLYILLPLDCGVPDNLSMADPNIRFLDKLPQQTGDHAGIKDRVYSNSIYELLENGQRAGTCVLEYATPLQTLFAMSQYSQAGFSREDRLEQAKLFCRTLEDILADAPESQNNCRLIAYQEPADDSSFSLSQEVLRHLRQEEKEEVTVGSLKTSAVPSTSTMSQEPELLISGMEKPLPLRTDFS

Consider `Cc1cc(C(=O)Nc2nc3cc(C(N)=O)ccc3n2CCCCNC(=O)OC(C)(C)C)n(C)n1`, for which the results for the Activity (in assay [1]; in the assay with THP1-Dual) were 108.2% and 96.7%, respectively. In addition, the results for the RLU in assay [2] and in assay [3] were 0.9 and 1.2, respectively.
For `CCn1nc(C)cc1C(=O)NCCCn1c(NC(=O)c2cc(C)nn2CC)nc2cc(C(N)=O)ccc21`, in that order: 82.3%, 40.6%, 13.7 and 0.4.
Consider `Cc1cc(C(=O)Nc2nc3cc(C(N)=O)ccc3n2CCCCNC(=O)OC(C)(C)C)n(C(C)(C)C)n1`, for which the results for the Activity (in assay [1]; in the assay on THP1-Dual) were 82.7% and 83.5%, respectively. Moreover, the RLU in assay [2] turned out to be 1.1; in assay [3], 1.2.
For `CCn1nc(C)cc1C(=O)Nc1nc2cc(C(N)=O)ccc2n1CCCCNC(=O)c1ccccc1`, in that order: 64.2%, 27.4%, 7 and 0.2.
For `CCn1nc(C)cc1C(=O)Nc1nc2cc(C(N)=O)cc(OC)c2n1C/C=C/Cn1c(NC(=O)c2cc(C)nn2CC)nc2cc(C(N)=O)cc(OCCCN)c21`, the RLU turned out to be 101 in assay [2] and 0.7 in assay [3].
On to `CCn1nc(C)cc1C(=O)Nc1nc2cc(C(N)=O)ccc2n1CCCCNC(=O)C(C)(C)C`, for which the Activity in assay [1] worked out at 58.6%; in the assay with THP1-Dual it was 103.7%. Moreover, the RLU in assay [2] was found to be 4.8; in assay [3], 0.4.
For `CC(C)(C)OC(=O)NCCCCn1c(NC(=O)c2cc3ccccc3o2)nc2cc(C(N)=O)ccc21`, in that order: 98%, 92.7%, 0.8 and 0.7.
Taken in the same sequence, the figures for `CCn1nc(C)cc1C(=O)Nc1nc2cc(C(N)=O)ccc2n1CCCCNC(=O)OC(C)(C)C` were 78.4%, 97.6%, 21 and 0.6.
Taken in the same sequence, the figures for `NC(=O)c1ccc2c(c1)nc(NC(=O)c1cc3ccccc3o1)n2C[C@@H](O)c1ccccc1` were 105.5%, 90.2%, 0.8 and 0.8.
For the molecule `CCn1nc(C(F)(F)F)cc1C(=O)Nc1nc2cc(C(N)=O)ccc2n1C[C@@H](O)c1ccccc1`, the Activity in assay [1] was 91%; with THP1-Dual, 88.1%. The RLU in assay [2] came to 0.7; in assay [3], 1.
Consider `CCn1nc(C)cc1C(=O)Nc1nc2cc(C(N)=O)ccc2n1CCCCNC(=O)c1ccn[nH]1`, for which the Activity was 109.2% in assay [1] and 99.9% in the assay on THP1-Dual. Besides, the RLU in assay [2] came to 0.9; in assay [3], 1.3.
Taken in the same sequence, the figures for `CC(C)(C)OC(=O)NCCCCn1c(NC(=O)c2ccoc2)nc2cc(C(N)=O)ccc21` were 96.2%, 90.3%, 0.9 and 1.
With `NC(=O)c1ccc2c(c1)nc(NC(=O)c1cc3ccccc3o1)n2CCCCn1c(NC(=O)c2cc3ccccc3o2)nc2cc(C(N)=O)ccc21`, the Activity was determined as 96.8% in assay [1] and 103% in the assay on THP1-Dual. Besides, the RLU in assay [2] came out at 0.9; in assay [3], 1.3.
For `CCn1nc(C)cc1C(=O)Nc1nc2cc(C(N)=O)ccc2n1CCCCNC(C)=O`, in that order: 74.9%, 40.8%, 0.4 and 0.3.
For `CCn1nc(C)cc1C(=O)Nc1nc2cc(C(N)=O)cc(OCCCNC(=O)OC(C)(C)C)c2n1C`, in that order: 110%, 80.1%, 127 and 0.8.
For the molecule `Cn1cc(C(=O)Nc2nc3cc(C(N)=O)ccc3n2C[C@@H](O)c2ccccc2)c(C(F)(F)F)n1`, the Activity in assay [1] turned out to be 92.4%; in the assay on THP1-Dual, 89.4%. In addition, the RLU in assay [2] turned out to be 0.8; in assay [3], 1.1.
For `CCn1nc(C)cc1C(=O)Nc1nc2cc(C(N)=O)cc(OC)c2n1CCCCNC(=O)OC(C)(C)C`, in that order: 90%, 72.1%, 2.7 and 0.5.
Regarding `Cc1cc(C(=O)Nc2nc3cc(C(N)=O)ccc3n2CCCCNC(=O)OC(C)(C)C)n(C(C)C)n1`, the Activity in assay [1] is listed as 100.1%; with THP1-Dual, 97.1%. For the same molecule, the RLU in assay [2] was 0.9; in assay [3], 0.8.
Taken in the same sequence, the figures for `CCn1nc(C)cc1C(=O)Nc1nc2cc(C(=O)OC)ccc2n1CCCCn1c(NC(=O)c2cc(C)nn2CC)nc2cc(C(=O)OC)ccc21` were 117.9%, 122%, 0.8 and 0.8.
In the case of `CCn1nc(C)cc1C(=O)NCCCCCn1c(NC(=O)c2cc(C)nn2CC)nc2cc(C(N)=O)ccc21`, the results for the Activity (in assay [1]; in the assay on THP1-Dual) were 77.5% and 44.9%, respectively. Besides, the figures for the RLU in assay [2] and in assay [3] were 1 and 0.3, respectively.
Regarding `CCn1nc(C(F)(F)F)cc1C(=O)Nc1nc2cc(C(N)=O)ccc2n1CCCCNC(=O)OC(C)(C)C`, the Activity is 89.9% in assay [1] and 99.4% in the assay on THP1-Dual. The RLU in assay [2] is 0.8; in assay [3], 1.1.
In the case of `Cn1cc(C(=O)Nc2nc3cc(C(N)=O)ccc3n2CCCCNC(=O)OC(C)(C)C)c(C(F)(F)F)n1`, the Activity in assay [1] is 90.6%; with THP1-Dual, 91.9%. Moreover, the RLU in assay [2] worked out at 0.8; in assay [3], 0.9.
For `NC(=O)c1ccc2c(c1)nc(NC(=O)c1ccoc1)n2C[C@@H](O)c1ccccc1`, in that order: 94%, 88%, 0.5 and 0.9.
As to `NC(=O)c1ccc2c(c1)nc(NC(=O)c1nn(C3CCCCO3)c3ccccc13)n2C[C@@H](O)c1ccccc1` (some centres not stated), the Activity in assay [1] is on record as 93.4%; with THP1-Dual, 95.8%. The RLU in assay [2] is 0.4; in assay [3] it was 0.9.
For `Nc1nc2c(ncn2[C@@H]2O[C@@H]3COP(=O)(O)O[C@H]4[C@@H](O)[C@H](n5cnc6c(N)ncnc65)O[C@@H]4COP(=O)(O)O[C@@H]2[C@@H]3O)c(=O)[nH]1`, the Activity in the assay on THP1-Dual was determined as 76.5%.
On to `CCn1nc(C)cc1C(=O)Nc1nc2cc(C(N)=O)ccc2n1CCCCN`, for which the Activity in assay [1] turned out to be 85.5%; with THP1-Dual, 95.2%. Also, the RLU in assay [2] was 0.8; in assay [3], 1.
Taken in the same sequence, the figures for `CCn1nc(C)cc1C(=O)Nc1nc2cc(C(=O)O)ccc2n1CCCCn1c(NC(=O)c2cc(C)nn2CC)nc2cc(C(=O)O)ccc21` were 101.6%, 113.1%, 0.6 and 0.6.
Turning to `CCn1nc(C)cc1C(=O)Nc1nc2cc(C(N)=O)ccc2n1CCCCNC(=O)c1cc(C)nn1C`, the Activity in assay [1] came to 105.4%; with THP1-Dual, 66%. Moreover, the RLU in assay [2] came out at 93.3; in assay [3], 0.9.
As to `CCn1nc(C)cc1C(=O)Nc1nc2cc(C(N)=O)cc(OCCCN)c2n1C`, the Activity in assay [1] is reported as 110%; in the assay with THP1-Dual, 88%. In addition, the RLU in assay [2] amounted to 101; in assay [3] it was 1.
For `Cn1cc(C(=O)Nc2nc3cc(C(N)=O)ccc3n2CCCCn2c(NC(=O)c3cn(C)nc3C(F)(F)F)nc3cc(C(N)=O)ccc32)c(C(F)(F)F)n1`, in that order: 115%, 96.7%, 7.7 and 0.8.
On to `CCn1nc(C)cc1C(=O)Nc1nc2cc(C(N)=O)ccc2n1CCCCNC(=O)c1cccnc1`, for which the Activity is 96.4% in assay [1] and 98.9% in the assay with THP1-Dual. For the same molecule, the values for the RLU in assay [2] and in assay [3] were 1 and 1.1, respectively.
Take `C=CCn1nc(C(=O)Nc2nc3cc(C(N)=O)ccc3n2CCCCn2c(NC(=O)c3cc(C)n(CC=C)n3)nc3cc(C(N)=O)ccc32)cc1C`: the Activity in assay [1] is reported as 108.3%; with THP1-Dual, 108.6%. Also, the RLU was determined as 0.8 in assay [2] and 0.9 in assay [3].
`CCn1nc(C)cc1C(=O)Nc1nc2cc(C(N)=O)ccc2n1CCCNC(=O)OC(C)(C)C`: the Activity turned out to be 88% in assay [1] and 90.2% with THP1-Dual. Besides, the RLU was 20 in assay [2] and 0.9 in assay [3].
For `CCn1nc(C)cc1C(=O)Nc1nc2cc(C(N)=O)cc(OC)c2n1C/C=C/CNC(=O)OC(C)(C)C`, the Activity in assay [1] was 87.7%; in the assay on THP1-Dual, 89.5%. Further, the RLU in assay [2] stood at 13.7; in assay [3], 0.7.
For the molecule `NC(=O)c1ccc2c(c1)nc(NC(=O)c1n[nH]c3ccccc13)n2C[C@@H](O)c1ccccc1`, the Activity is reported as 100.9% in assay [1] and 91.2% in the assay with THP1-Dual. Moreover, the RLU amounted to 0.9 in assay [2] and 1.3 in assay [3].
Taken in the same sequence, the figures for `CCn1nc(C)cc1C(=O)/N=c1\[nH]c2cc(C(N)=O)ccc2n1C[C@@H](O)c1ccccc1` were 76.9%, 96%, 2 and 0.7.
With `CCn1nc(C)cc1C(=O)NCCCOc1cc(C(N)=O)cc2nc(NC(=O)c3cc(C)nn3CC)n(C)c12`, the Activity in assay [1] was determined as 113%; with THP1-Dual, 94%. Also, the RLU in assay [2] came to 99.1; in assay [3], 0.9.
For `C=CCn1nc(C(=O)Nc2nc3cc(C(N)=O)ccc3n2CCCCNC(=O)OC(C)(C)C)cc1C`, in that order: 103.9%, 96.1%, 0.9 and 1.4.
